# Measured values taken from US20250145715A1, “B7-H3 TARGETING FUSION PROTEINS AND METHODS OF USE THEREOF” (GT Biopharma, Inc., priority 2021, published 2025).
# Legend:
# Format in all cases: cell-based, human
# OVCAR8 cells = test: IncuCyte real-time tumor-killing assay, OVCAR8; conditions: enriched NK cells, E:T 2:1, 30 nM, 48 h; vs controls
# Experimental: (§1) Healthy donor or ovarian cancer PBMC cells were incubated with ovarian tumor targets at 2:1 E:T ratio for 4 hrs with 30 nM TriKE or control condition. FIG. 30A is a graph illustrating pooled proportion of NK cells from healthy donors expressing CD107a+ (degranulation) against OVCAR8 targets (N=8). FIG. 30B is a graph illustrating pooled proportion of NK cells from healthy donors expressing IFNγ cytokine production against OVCAR8 targets (N=8). FIG. 30C is a graph illustrating pooled proportion of NK cells from healthy donors expressing CD107a+ (degranulation) against OVCAR3 targets (N=4). […] FIG. 30I is a graph illustrating that tumor killing was evaluated using IncuCyte imaging assay. […] The percentage of Live (Nuclight Red+Caspase 3/7−) tumor cells was quantified over a 48-h period and normalized to tumor alone. Readings were obtained every 15 min (representative of four separate experiments). * p<0.05, ** p<0.01, *** p<0.001, and **** p<0.0001.
# Tumor killing was evaluated in real-time using the IncuCyte platform. […] Caspase-3/7 green dye (Sartorious, Ann Arbor, MI, USA) was added to pick up dying cells that have not yet lost NuclightRed fluorescence. […] Images from three technical replicates were taken every 15 min for 48 h using a 4× objective lens and then analyzed using IncuCyte™ Basic Software v2018A (Sartorious). […]
# [1] = test system: OVCAR8 ovarian cancer cells; test: NK cell CD107a / IFNγ flow cytometry against OVCAR8; conditions: 30 nM, E:T 2:1, 4 hrs; vs no treatment and rhIL-15 alone
# Experimental: FIG. 29A is a graph illustrating pooled proportion of NK cells from healthy donors expressing CD107a+ (degranulation) against OVCAR8 and MA148 targets. FIG. 29B is a graph illustrating pooled proportion of NK cells from healthy donors expressing IFNγ cytokine production against OVCAR8 and MA148 targets.
# as §1, with “(N=4). FIG. 30D is a graph illustrating pooled proportion of NK cells from healthy donors expressing IFNγ cytokine production against OVCAR3 targets (N=4). FIG. 30E is a graph illustrating pooled proportion of NK cells from healthy donors expressing CD107a+ (degranulation) against OVCAR5 targets (N=7). FIG. 30F is a graph illustrating pooled proportion of NK cells from healthy donors expressing IFNγ cytokine production against OVCAR5 targets (N=7).” for “(N=4).”
# ADCC was measured in a flow cytometry assay by evaluating degranulation via CD107a (lysosomal-associated membrane protein LAMP-1) and intracellular IFNγ production. […] Samples were washed and evaluated in an LSRII flow cytometer (BD Biosciences, San Jose, CA, USA).
# The ability of cam1615B7-H3 TriKE to mediate NK cell activity against ovarian cancer cells was evaluated. […]
# lung cancer cell lines = test: NK cell activation against lung cancer cell lines vs K562 / Raji
# Experimental: ADCC was measured in a flow cytometry assay by evaluating degranulation via CD107a (lysosomal-associated membrane protein LAMP-1) and intracellular IFNγ production. Upon thawing, normal donor and patient-derived PBMCs or ascites cells were rested overnight (37° C., 5% CO2) in RPMI 1640 media supplemented with 10% fetal calf serum (RPMI-10). The next morning, they were suspended with tumor-target cells or media after washing twice with RPMI-10. Cells were then incubated with TriKEs or controls for 10 min at 37° C. Fluorescein isothiocyate (FITC)-conjugated anti-human CD107a monoclonal antibody (BD Biosciences, San Jose, CA, USA) was then added. Following an hour 37° C. incubation, GolgiStop (1:1500, BD Biosciences) and GolgiPlug (1:1000, BD Biosciences) were added for 3 h. After washing with phosphate buffered saline, the cells were stained with PE/Cy 7-conjugated anti-CD56 mAb, APC/Cy 7-conjugated anti-CD16 mAb, and PE-CF594-conjugated anti-CD3 mAb (BioLegend, San Diego, CA, USA). Cells were incubated for 15 min at 4° C., washed, and fixed with 2% paraformaldehyde. Cells were then permeabilized using an intracellular perm buffer (BioLegend) to evaluate production of IFNγ through detection via aBV650 conjugated anti-human IFNγ antibody (BioLegend). Samples were washed and evaluated in an LSRII flow cytometer (BD Biosciences, San Jose, CA, USA). […]
substance,measurement,setting,value
"cam1615B7-H3: second-generation TriKE: humanized camelid anti-CD16 VHH, human wild-type IL-15, anti-B7-H3 mAb 376.96 scFv; SEQ ID NO:1",killing of OVCAR8 tumor cells over two days,OVCAR8 cells,robust and rapid tumor killing
same,NK cell degranulation against OVCAR8,[1],robust
same,NK cell intracellular IFNγ production against OVCAR8,[1],robust
same,NK cell degranulation and IFNγ production against lung cancer cells vs K562 targets alone,lung cancer cell lines,higher than that seen when NK cells are incubated with K562 targets alone
same,B7-H3 specificity of activation against lung cancer cell lines,lung cancer cell lines; vs B7-H3− Raji cells,specific to B7-H3 expression
